Where “and” joins values, the source holds several entries; their conditions need not be identical. Equal values may be shown once. Read-outs that look alike come from different tables or passages of the source.
What was measured:
Protein Kinase A (PKA) = test: Protein kinase A activity (histone substrate, Pro-Q stain); assay type: biochemical; conditions: varying concentrations, 30 minutes on ice, then ATP 30° C. 15 minutes
Method: (§1) For protein kinase activity, histone was used as the substrate for protein kinase A (PKA) and glutathione-S-transferase-S6 (GST-S6) for S6K2. Enzyme was pre-incubated with substrate and varying concentrations of inhibitor on ice for 30 minutes. The control sample contained solvent (methanol). ATP was then added to each sample and the cocktail incubated at 30° C. for 15 minutes. Equal amounts of each mixture were fractionated by SDS-PAGE on a 10% acrylamide gel. The gel was fixed in 50% methanol/10% acetic acid, washed with water, and then stained in Pro-Q Stain in the dark for 60 minutes. The gel was then destained, washed, and scanned on a Typhoon Imager (FIG. 5).

[1] = biological target: T1, Acetylcholinesterase (from electric eel) (Electrophorus electricus, UniProt O42275); test: Acetylcholinesterase activity, Ellman assay after pre-incubation with inhibitor; assay type: biochemical; conditions: 100 μM compound, 60 minutes at 25° C.; read-out: % Activity ± SD (acetylcholinesterase activity relative to enzyme incubated with solvent)
T1 construct: Acetylcholinesterase (from electric eel); purchased Sigma; host or cells: electric eel (natural source)
Method: Acetylcholinesterase (from electric eel), butyrylcholinesterase (from horse serum), DTNB, butyrylthiocholine, acetylthiocholine, and BSA were purchased from Sigma. The dialkyl 2-chlorophenyl (and 4-chlorophenyl) phosphates were solubilized in reagent grade methanol.
Cholinesterase activity measurements were performed essentially according to the method of Ellman (Biochemical Pharmacology 7:88-90, 1961). The composition of the assay mixture was 0.1 M sodium phosphate, pH 7.5, 0.033 M DTNB, 0.001 M MgCl2, and 100 μg/mL of BSA containing appropriate amounts of substrate and inhibitor. Each assay was initiated by the addition of substrate and the activity quantified by measuring the formation of the thionitrobenzoate anion at 412 nm at 37° C. Methanol used to solubilize the dialkyl phenyl phosphates [1% (v/v) final concentration] had no inhibitory effect on either enzyme.
Butyrylcholinesterase was pre-incubated at room temperature with inhibitor in the assay cocktail minus substrate for varying periods of time at 25° C. Substrate was then added and the activity measured as described above. The relative rates of enzyme inactivation were determined by plotting enzyme activity versus time of pre-incubation with inhibitor. Results were expressed as the rate constant for the rate of enzyme inactivation. In the case of AcChase, results were expressed as the % of activity remaining relative to the enzyme incubated only with solvents.
The first series of experiments determined the effect of the dialkyl 2-chlorophenyl (and 4-chlorophenyl) phosphates on both AcChase and BuChase. None of the compounds had any inhibitory effect on AcChase (See Table 1). In Table 1, AcChase was incubated with 100 μM of the indicated phenyl phosphate for 60 minutes at 25° C. and then assayed as described above. Results were expressed as the % activity relative to enzyme incubated with solvent ±SD (standard deviation).

human umbilical cells = assay type: in vitro ADME
Method: Also, the uptake of di-n-butyl-2-chlorophenyl phosphate by human umbilical cells was measured after […] for both undifferentiated cells and differentiating neurons. (Table 6)

[2] = test system: porcine umbilical stem cells; assay type: in vitro ADME
Method: In addition, uptake of di-n-butyl-2-chlorophenyl phosphate by porcine umbilical stem cells was measured after 24 and 48 hours of culture (Table 5).

S6K2 = S6K2 (Homo sapiens, UniProt Q9UBS0); test: S6K2 activity (GST-S6 substrate, Pro-Q stain); assay type: biochemical; conditions: varying concentrations, 30 minutes on ice, then ATP 30° C. 15 minutes
Method: as §1

hexokinase = test: Hexokinase activity (NADPH generation); assay type: biochemical; conditions: 10 μM, 60 min at 25° C.
Method: The effect of DB2ClPP on hexokinase activity was assayed. Hexokinase was incubated with solvent, 10 mM iodoacetamide (a known hexokinase inhibitor), or 10 μM DB2CPP for 60 min at 25° C. Enzyme activity is given as the nmoles of NADPH generated per min at 25° C. Data shown are the mean of three replicates ±SEM. (FIG. 6)

[3] = assay type: in vivo, male Long-Evans rats; conditions: rat, intraperitoneal 0.2 mL of 10 mg/mL in DMSO, 30 minutes, brain tissue (1.5 g), GC/MS; one value per animal
Method: An animal study using two groups (n=7/group) of male Long-Evans rats (200-225 g, Charles River, Portage, Mich.) was conducted to determine whether DB2ClPP crosses the blood brain barrier. DB2ClPP was dissolved in dimethyl sulfoxide (DMSO). Rats were injected intraperitoneally with either 0.2 mL DMSO (vehicle control) or 0.2 mL of a 10 mg/mL solution of DB2ClPP with DMSO as solvent. Thirty minutes after DB2ClPP treatment, animals were deeply anesthetized with isoflurane and then decapitated. Brains were removed quickly, rinsed in ice cold phosphate buffer saline (pH 7.4) and block dissected and flash frozen in liquid nitrogen and stored at −80° C. until assayed.
The tissue from two animals injected with DB2ClPP were processed as follows: i) brain tissue (1.5 g) was allowed to thaw on ice in a Dounce homogenizer; ii) 10 mL of methylene chloride was added and the tissue extracted with 20 strokes of the loose fitting pestle. The homogenate was clarified by centrifugation and the supernatant extracted three times with methylene chloride using a separatory funnel. The organic phase was collected, pooled, and dried over magnesium sulfate. The eluate was then concentrated down to a volume of approximately 200 μl under nitrogen and analyzed by GC/MS for the presence of the DB2ClPP. A solution of neat DB2ClPP served as control. The DB2ClPP was present in both samples. […]

chymotrypsin = test: Chymotrypsin activity (ATEE hydrolysis); assay type: biochemical; conditions: 10 μM, 60 minutes at 25° C.
Method: The effect of DB2ClPP on the activity of chymotrypsin was assayed. […] was incubated with solvent, 10 μM DB2CPP, or 10 μM PMSF (a known inhibitor of chymotrypsin) for 60 minutes at 25° C. to determine any inhibitory effect of DB2CPP on enzymatic activity. Enzyme activity is given as nmoles of ATEE hydrolyzed per minute at 25° C. Data shown are the mean of three replicates ±SEM. (FIG. 4)

[4] = test system: porcine umbilical stem cells; assay type: cell-based; conditions: increasing concentrations, 48 hours, Neurobasal Medium
Method: Porcine umbilical stem cells were cultured in Neurobasal Medium supplemented with B27 (Invitrogen) and antibiotics for various periods of with varying concentrations of di-n-butyl-2-chlorophenyl phosphate. Cells were collected, washed, counted, and analyzed for viability by Trypan Blue staining.

T1 sequence (O42275 24-633): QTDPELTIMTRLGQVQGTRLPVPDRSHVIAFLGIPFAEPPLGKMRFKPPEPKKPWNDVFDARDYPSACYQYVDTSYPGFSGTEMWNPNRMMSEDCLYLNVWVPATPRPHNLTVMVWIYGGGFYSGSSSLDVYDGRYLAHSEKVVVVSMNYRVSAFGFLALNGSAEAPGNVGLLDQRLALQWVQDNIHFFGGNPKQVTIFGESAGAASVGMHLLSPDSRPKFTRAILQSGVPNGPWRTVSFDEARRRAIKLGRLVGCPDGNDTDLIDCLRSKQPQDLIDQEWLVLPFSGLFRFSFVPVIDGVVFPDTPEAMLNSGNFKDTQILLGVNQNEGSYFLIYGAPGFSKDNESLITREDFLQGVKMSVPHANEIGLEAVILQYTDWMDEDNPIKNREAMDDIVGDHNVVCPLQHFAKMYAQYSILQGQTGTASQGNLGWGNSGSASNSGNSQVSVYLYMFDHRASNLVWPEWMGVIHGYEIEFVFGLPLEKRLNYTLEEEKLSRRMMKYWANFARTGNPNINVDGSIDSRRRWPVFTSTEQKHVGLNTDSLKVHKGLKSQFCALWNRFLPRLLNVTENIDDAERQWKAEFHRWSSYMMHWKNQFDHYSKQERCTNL
Chain of S6K2 (Q9UBS0 whole entry, looked up): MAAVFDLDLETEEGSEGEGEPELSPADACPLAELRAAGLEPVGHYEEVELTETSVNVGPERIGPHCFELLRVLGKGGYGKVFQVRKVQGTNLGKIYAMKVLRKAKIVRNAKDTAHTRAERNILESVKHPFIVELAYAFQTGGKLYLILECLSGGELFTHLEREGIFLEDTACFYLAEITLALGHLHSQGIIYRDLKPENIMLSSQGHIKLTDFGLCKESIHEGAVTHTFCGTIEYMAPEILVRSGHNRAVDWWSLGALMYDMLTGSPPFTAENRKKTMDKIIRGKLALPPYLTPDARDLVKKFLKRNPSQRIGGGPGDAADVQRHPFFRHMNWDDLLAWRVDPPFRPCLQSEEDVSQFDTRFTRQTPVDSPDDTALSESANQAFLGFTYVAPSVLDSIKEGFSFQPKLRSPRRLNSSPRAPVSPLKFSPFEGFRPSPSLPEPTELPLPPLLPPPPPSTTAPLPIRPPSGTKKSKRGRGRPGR

## CCCCOP(=O)(OCCCC)Oc1ccccc1Cl [DB2ClPP, Di-n-butyl 2-chlorophenyl phosphate]
Protein Kinase A (PKA)
  effect on PKA activity (FIG. 5): none of the above mentioned enzymes were affected
[1]
  activity at 100 µM: 97.6 ± 0.029%
Human umbilical cells; Neurons, 0 hours
  uptake, fg/cell: 78.85 ± 8.04 fg/cell
Human umbilical cells; Neurons, 24 hours
  uptake, fg/cell: 820.52 ± 82.32 fg/cell
Human umbilical cells; Undifferentiated cells, 0 hours
  uptake, fg/cell: 114.72 ± 37.93 fg/cell
Human umbilical cells; Undifferentiated cells, 24 hours
  uptake, fg/cell: 795.89 ± 202.41 fg/cell
[2]; 0 hours
  fg DB2Cl-PP/cell (±SEM): 2.55 ± 0.011 fg/cell
[2]; 24 hours
  fg DB2Cl-PP/cell (±SEM): 11.57 ± 1.02 fg/cell
[2]; 48 hours
  fg DB2Cl-PP/cell (±SEM): 13.62 ± 0.003 fg/cell
S6K2
  effect on S6K2 activity (FIG. 5): none of the above mentioned enzymes were affected
hexokinase
  effect on hexokinase activity (FIG. 6): none of the above mentioned enzymes were affected
[3]
  amount of DB2ClPP in brain sample: 220 ng and 125 ng
chymotrypsin
  effect on chymotrypsin activity (FIG. 4): none of the above mentioned enzymes were affected
[4]
  effect on mortality of porcine umbilical stem cells (FIG. 7): did not have any significant effect on mortality

Reference: patent US9757399B2, “Butyrylcholinesterase inhibitors” (priority 2006, dated 2017)
